Experimental data from patent US20110306622A1, “METHODS OF TREATING HEMATOLOGICAL DISORDERS WITH QUINAZOLINONE COMPOUNDS IN SELECTED SUBJECTS” (Calitoga Pharmaceuticals, Inc., priority 2010, published 2011).

Tests used:
[1] = target: T1, PI3Kγ (Mus musculus, UniProt Q9JHG7); test: Isoform specific cell-based assay: C5a induced pAKT in monocyte cell line (RAW-264); conditions: n = 11
T1 construct: endogenous in cells; host or cells: RAW-264 monocyte cell line
Description: (§1) Swiss-3T3 fibroblasts and RAW-264 were seeded on a 96-well tissue culture plate and allowed to reach at least 90% confluency. […] Akt phosphorylation and total AKT was detected by ELISA. Purified B-cells were treated with either vehicle or serial dilutions of compound I for 30 minutes at room temperature before the addition of purified goat anti-human IgM. Results are expressed as relative [^3H] thymidine incorporation induced by IgM crosslinking.

[2] = target: PI3Kalpha (Mus musculus, UniProt P42337); test: Isoform specific cell-based assay: PDGF induced pAKT in fibroblast cell line (Swiss-3T3); conditions: n = 12
Description: as §1

[3] = tested on: CCL3, CCL4 and CXCL13 chemokine levels in CLL patients; test: Plasma chemokine levels in CLL patients before and after one 28-day cycle of treatment (multiplexed bead suspension arrays); type: in vivo, human
Description: Plasma was stored at −70 degrees centigrade. Before analysis, samples were thawed overnight at 4 degrees centigrade and centrifuged at 1,500×g to remove debris. Chemokines were analyzed with commercially available multiplexed bead suspension arrays (MBA, Millipore). MBAs were analyzed using a Luminex 200 instrument and data was organized and analyzed using 3.1 xPONENT software. The plasma concentration of 14 patients with CLL was assessed at pre-dose baseline concentrations. The average plasma concentration of CCL3 (186 pg/mL) and CCL4 (303 pg/mL) at the pre-dose baseline are approximately 5 times higher in these subject compared to normal subjects. The average plasma concentration of CXCL13 (316 pg/mL) at pre-dose baseline was approximately 10 times higher than normal subjects. […] In the first week of dosing across all dose levels evaluated, the concentration of CCL3, CCL4 and CXCL13 were decreased by 2 to 5-fold. On the last day of the cycle, the plasma concentration of the chemokines was reassessed, see FIG. 1.

[4] = tested on: CCL17, CCL22, CXCL13 and TNF-alpha levels in iNHL patients; test: Plasma chemokine and TNF-alpha levels and tumor size in iNHL patients, pre-treatment vs Day 28; type: in vivo, human
Description: (§2) 103 patients were enrolled in the study, including 40 with MCL and 63 with iNHL. Among patients with iNHL, all 4 subtypes were represented. Patients were heavily treated with chemoimmunotherapy. Patients had received a median of 4 prior regimens and some had received as many as 14 prior regimens. Most patients had received several types of chemoimmunotherapy for NHL. Disease was commonly refractory to available therapies.
(§3) Patients were treated over a broad range of doses of Compound A using once-per-day (QD) and twice-per-day (BID) continuous and intermittent schedules. Patients remained on therapy for protracted periods; many patients with iNHL continued on treatment beyond 12 cycles (48 weeks).
(§4) Prior to treatment, the concentration of CCL17, CCL22, CXCL13, and TNF-alpha was evaluated. On the last day of the cycle, the plasma concentration of the chemokines and TNF-alpha was re-assessed. Table 3 (for MCL) and Table 4 (for iNHL) below summarize the chemokine and TNF-alpha concentration at the baseline and at Day 28 of the cycle.

[5] = tested on: CCL3, CCL17 and TNF-alpha in CLL patients; test: Clinical evaluation in CLL patients: change in plasma CCL3, CCL17 and TNF-alpha compared to decrease in lymph node size; type: in vivo, human; conditions: responders = lymph node decreases of 50% or greater, FIG. 10
Description: The concentration of CCL3, CCL17 and TNF-alpha were determined in the plasma samples by a bead-based ELISA technology. The resulting plasma concentrations of these factors were compared to decrease in lymph node size. Patients that had lymph node decreases of 50% or greater were designated as “responders” to the drug.

[6] = tested on: BCR-induced secretion of CCL3 and CCL4 by CLL cells; test: BCR-induced (anti-IgM) secretion of chemokines CCL3 and CCL4 by CLL cells, ELISA of supernatants; type: cell-based; conditions: medium with anti-IgM plus compound, 24 hours, anti-IgM alone raised levels roughly 5 to 6 fold
[7] = tested on: CCL17, CCL22, CXCL13 and TNF-alpha levels in MCL patients; test: Plasma chemokine and TNF-alpha levels and tumor size in MCL patients, pre-treatment vs Day 28; type: in vivo, human
Description: as §2, §3, §4

PI3Kalpha, sequence (P42337 whole entry, canonical isoform): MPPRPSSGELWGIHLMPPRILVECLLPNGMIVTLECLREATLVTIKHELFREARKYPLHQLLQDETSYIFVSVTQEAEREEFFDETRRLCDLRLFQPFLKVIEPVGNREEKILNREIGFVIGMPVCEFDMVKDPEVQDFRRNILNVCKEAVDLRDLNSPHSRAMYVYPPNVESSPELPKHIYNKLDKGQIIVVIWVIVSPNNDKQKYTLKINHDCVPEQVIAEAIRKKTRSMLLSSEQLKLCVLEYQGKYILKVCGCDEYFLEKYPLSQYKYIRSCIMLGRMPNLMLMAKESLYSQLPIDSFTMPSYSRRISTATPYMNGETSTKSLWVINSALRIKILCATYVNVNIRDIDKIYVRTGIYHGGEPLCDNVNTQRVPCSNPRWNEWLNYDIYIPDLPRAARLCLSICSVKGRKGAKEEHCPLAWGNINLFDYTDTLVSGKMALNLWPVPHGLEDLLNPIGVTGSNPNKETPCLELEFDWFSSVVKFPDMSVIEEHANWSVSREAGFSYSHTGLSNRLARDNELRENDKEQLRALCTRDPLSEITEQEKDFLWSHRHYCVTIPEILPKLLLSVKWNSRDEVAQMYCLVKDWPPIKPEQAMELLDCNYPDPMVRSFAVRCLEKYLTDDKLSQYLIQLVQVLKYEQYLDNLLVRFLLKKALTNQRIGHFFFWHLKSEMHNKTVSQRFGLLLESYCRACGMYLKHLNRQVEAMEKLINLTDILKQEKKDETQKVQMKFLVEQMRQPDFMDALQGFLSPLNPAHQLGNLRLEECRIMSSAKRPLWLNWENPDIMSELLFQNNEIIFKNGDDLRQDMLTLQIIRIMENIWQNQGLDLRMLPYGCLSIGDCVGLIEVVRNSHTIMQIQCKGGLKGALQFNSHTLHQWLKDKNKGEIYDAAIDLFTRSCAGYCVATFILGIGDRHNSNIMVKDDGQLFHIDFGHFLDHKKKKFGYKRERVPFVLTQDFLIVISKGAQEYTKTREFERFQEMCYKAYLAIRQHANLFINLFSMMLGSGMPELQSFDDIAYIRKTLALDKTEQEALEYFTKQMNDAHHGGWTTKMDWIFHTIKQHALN
PI3Kalpha, sequence (P26450 whole entry partner, canonical isoform): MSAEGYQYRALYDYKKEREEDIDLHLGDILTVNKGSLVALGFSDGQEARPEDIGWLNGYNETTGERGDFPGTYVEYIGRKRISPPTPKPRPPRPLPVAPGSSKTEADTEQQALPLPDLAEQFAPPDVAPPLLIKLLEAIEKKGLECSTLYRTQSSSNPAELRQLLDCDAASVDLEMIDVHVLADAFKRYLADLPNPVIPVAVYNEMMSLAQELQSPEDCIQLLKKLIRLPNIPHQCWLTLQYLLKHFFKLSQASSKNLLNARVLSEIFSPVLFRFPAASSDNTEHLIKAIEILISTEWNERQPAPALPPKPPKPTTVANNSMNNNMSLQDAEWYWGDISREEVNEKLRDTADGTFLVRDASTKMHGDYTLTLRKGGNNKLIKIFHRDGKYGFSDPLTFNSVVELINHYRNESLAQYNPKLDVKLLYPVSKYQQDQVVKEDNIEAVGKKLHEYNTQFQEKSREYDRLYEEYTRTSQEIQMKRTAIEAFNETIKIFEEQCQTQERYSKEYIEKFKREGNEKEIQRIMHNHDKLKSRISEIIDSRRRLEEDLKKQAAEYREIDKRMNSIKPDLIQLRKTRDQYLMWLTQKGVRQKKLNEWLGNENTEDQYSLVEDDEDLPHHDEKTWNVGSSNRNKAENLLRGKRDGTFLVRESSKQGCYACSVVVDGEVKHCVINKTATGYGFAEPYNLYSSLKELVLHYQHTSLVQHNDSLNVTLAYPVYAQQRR
T1 sequence (Q9JHG7 whole entry, canonical isoform): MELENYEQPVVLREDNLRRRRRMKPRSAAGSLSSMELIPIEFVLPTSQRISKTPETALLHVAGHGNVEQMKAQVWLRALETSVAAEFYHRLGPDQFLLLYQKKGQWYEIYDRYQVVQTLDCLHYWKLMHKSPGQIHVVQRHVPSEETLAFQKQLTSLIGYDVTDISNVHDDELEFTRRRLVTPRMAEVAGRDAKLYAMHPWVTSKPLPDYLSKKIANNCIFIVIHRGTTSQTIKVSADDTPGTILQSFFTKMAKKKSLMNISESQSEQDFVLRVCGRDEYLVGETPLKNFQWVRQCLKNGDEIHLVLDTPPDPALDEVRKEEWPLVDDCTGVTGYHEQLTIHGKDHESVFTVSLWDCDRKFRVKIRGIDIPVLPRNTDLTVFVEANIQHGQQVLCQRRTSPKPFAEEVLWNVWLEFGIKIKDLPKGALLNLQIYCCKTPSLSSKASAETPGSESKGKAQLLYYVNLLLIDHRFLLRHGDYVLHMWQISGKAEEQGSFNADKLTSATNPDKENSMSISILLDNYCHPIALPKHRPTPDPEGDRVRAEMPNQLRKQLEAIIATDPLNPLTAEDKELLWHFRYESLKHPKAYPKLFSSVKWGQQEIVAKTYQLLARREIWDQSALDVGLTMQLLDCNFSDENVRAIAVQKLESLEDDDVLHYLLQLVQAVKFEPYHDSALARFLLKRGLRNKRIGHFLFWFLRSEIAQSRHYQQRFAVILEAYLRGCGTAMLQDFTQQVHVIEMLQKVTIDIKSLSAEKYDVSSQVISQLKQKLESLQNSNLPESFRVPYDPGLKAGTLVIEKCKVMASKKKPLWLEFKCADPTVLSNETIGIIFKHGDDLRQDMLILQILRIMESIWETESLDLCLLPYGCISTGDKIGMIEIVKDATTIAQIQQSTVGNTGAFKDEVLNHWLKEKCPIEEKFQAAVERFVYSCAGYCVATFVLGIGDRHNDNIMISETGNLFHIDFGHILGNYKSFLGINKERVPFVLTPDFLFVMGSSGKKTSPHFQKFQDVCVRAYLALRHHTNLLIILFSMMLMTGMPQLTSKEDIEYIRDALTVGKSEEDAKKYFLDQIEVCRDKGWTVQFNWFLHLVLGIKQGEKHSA
T1 sequence (Q5SW28 whole entry partner, canonical isoform): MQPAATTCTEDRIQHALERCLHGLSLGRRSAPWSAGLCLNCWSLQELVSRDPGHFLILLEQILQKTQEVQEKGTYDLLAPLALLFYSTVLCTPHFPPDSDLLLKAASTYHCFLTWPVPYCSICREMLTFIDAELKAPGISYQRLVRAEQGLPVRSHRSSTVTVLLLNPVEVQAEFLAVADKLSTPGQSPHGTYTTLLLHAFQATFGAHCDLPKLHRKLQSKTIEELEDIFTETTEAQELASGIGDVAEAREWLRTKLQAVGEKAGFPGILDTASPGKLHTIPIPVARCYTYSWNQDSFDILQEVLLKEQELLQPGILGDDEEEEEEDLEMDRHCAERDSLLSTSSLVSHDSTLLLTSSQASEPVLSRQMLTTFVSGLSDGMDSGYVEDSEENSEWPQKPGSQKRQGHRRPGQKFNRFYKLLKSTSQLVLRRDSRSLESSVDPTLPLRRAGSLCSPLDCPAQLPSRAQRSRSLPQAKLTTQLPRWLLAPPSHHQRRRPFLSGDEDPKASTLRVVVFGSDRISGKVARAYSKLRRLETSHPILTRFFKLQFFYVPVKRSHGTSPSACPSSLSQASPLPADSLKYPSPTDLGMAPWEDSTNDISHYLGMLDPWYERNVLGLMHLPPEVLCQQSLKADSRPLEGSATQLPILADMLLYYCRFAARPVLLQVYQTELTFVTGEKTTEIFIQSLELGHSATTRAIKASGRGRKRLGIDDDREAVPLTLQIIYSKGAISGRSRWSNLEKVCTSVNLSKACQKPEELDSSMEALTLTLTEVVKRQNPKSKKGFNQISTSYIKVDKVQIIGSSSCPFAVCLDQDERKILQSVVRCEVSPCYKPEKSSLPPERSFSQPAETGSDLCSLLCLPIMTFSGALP

## CC[C@H](Nc1ncnc2[nH]cnc12)c1nc2cccc(F)c2c(=O)n1-c1ccccc1 [Compound A, (S)-2-(1-(9H-purin-6-ylamino)propyl)-5-fluoro-3-phenylquinazolin-4(3H)-one]
[1]
  EC50: 3.89 µM
[2]
  EC50: > 20 µM
[3]; 50 to 350 mg BID, 28-day dosing period
  clinical activity (lymphadenopathy): decrease in lymphadenopathy
[3]; Day 28 of cycle 1, 50 to 350 mg BID, average (baseline 186)
  CCL3 plasma concentration: 29 pg/mL
[3]; Day 28 of cycle 1, 50 to 350 mg BID, average (baseline 303)
  CCL4 plasma concentration: 70 pg/mL
[3]; Day 28 of cycle 1, 50 to 350 mg BID, average (baseline 316)
  CXCL13 plasma concentration: 40 pg/mL
[3]; Day 28 vs baseline
  % reduction of CCL3: 84%
  % reduction of CCL4: 77%
  % reduction of CXCL13: 87%
[3]; first week of dosing, across all dose levels evaluated (50 to 350 mg BID)
  decrease of the concentration of CCL3, CCL4 and CXCL13: 2 to 5 fold
[4]; Day 28 (pre-treatment 41)
  TNF-alpha plasma concentration: 19 pg/mL
[4]; Day 28 (pre-treatment 234)
  CCL17 plasma concentration: 88 pg/mL
[4]; Day 28 (pre-treatment 470)
  CXCL13 plasma concentration: 161 pg/mL
[4]; Day 28 (pre-treatment 2602)
  CCL22 plasma concentration: 1166 pg/mL
[4]; Day 28 vs pre-treatment
  % reduction of CCL17: 62%
  % reduction of CCL22: 55%
  % reduction of CXCL13: 66%
  % reduction of TNF-alpha: 54%
[4]; FIG. 4b
  clinical activity (tumor size): reduction in tumor size
[5]
  change from predose to Day 28 of CCL3, CCL17 and TNF-alpha, responders vs non-responders: significantly greater for individuals that responded to the drug than those that did not
[6]
  CCL3 and CCL4 secretion by anti-IgM stimulated CLL cells: effective suppression of chemokine secretion to levels nearing the control values
[7]; Day 28 (pre-treatment 65)
  TNF-alpha plasma concentration: 37 pg/mL
[7]; Day 28 (pre-treatment 194)
  CCL17 plasma concentration: 60 pg/mL
[7]; Day 28 (pre-treatment 437)
  CXCL13 plasma concentration: 227 pg/mL
[7]; Day 28 (pre-treatment 2593)
  CCL22 plasma concentration: 1286 pg/mL
[7]; Day 28 vs pre-treatment
  % reduction of CCL17: 69%
  % reduction of CCL22: 50%
  % reduction of CXCL13: 48%
  % reduction of TNF-alpha: 43%
[7]; FIG. 4a
  clinical activity (tumor size): reduction in tumor size
